pEC50, pIC50: −log10 of the molar value. Where two headings read alike, the source gives them in different places.
What was measured:
[1] = cited from earlier work; for time of peak uptake into the brain: dosed intravenously; for half-life in the brain: intravenous
[2] = baboon, cited from earlier work
dopamine transporter [3] = target: dopamine transporter (Rattus norvegicus, UniProt P23977); settings: read-out: binding affinity for the dopamine transporter (IC50); cited from earlier work
[4] = locomotor activity tests; cited from earlier work
rats and monkeys = settings: cited from earlier work; for effect on self-administration of cocaine: rats and monkeys
Sprague-Dawley rats [5] = assay: Spontaneous locomotor activity in rats, 1-24 hours (Example 223); assay type: in vivo, rat; settings: 10 mg/kg i.p.
Experimental: The effect of 124 and 126 on spontaneous locomotor activity in rats was determined according to the procedures outlined by Silverman et al. (Motor Activity. In “Animal behavior in the laboratory”, Chapman and Hall eds, London, p. 79-92, 1978) and Boissier et al. (Arch. Int. Pharmacodyn. 1965, 158, 212. ) Test items and test item vehicles were administered to male Sprague-Dawley rats (n=10) as a single i.p. dose. One, three, five, eight and twenty four hours following administration, rats were placed in a plastic box 30×30 cm in a room with low light intensity (maximum 50 lux). Locomotor activity was determined during 20 minute periods using video image analyzers. Images recorded with video cameras were digitalized and displacements of the center of gravity of the digital image spot were tracked and analyzed. When the speed of displacement of the center of gravity of the spot was below 4.26 cm/sec, the movement was considered as inactivity. When this speed was between 4.26 and 6.75 cm/sec, the movement was considered as a small movement. When this speed was above 6.75 cm/sec, the movement was considered as a large movement. The number of occurrences, distance and duration of fast and slow movements, number of occurrences and duration of periods of inactivity and number of rears were measured.

DAT [6] = target: T1, DAT (Homo sapiens, UniProt Q01959); settings: dosed orally, 60 mg; cited from earlier work
Sprague-Dawley rats [7] = assay: Spontaneous locomotor activity in rats (Example 141); assay type: in vivo, rat; settings: 10 mg/kg i.p.
Experimental: The effect of 124 and 126 on spontaneous locomotor activity in rats was determined according to the procedures outlined by Silverman et al. (Motor Activity. In “Animal behavior in the laboratory”, Chapman and Hall eds, London, p. 79-92, 1978) and Boissier et al. (Arch. Int. Pharmacodyn. 1965, 158, 212. )
Test items and test item vehicles were administered to male Sprague-Dawley rats (n=10) as a single i.p. dose (vehicle A=10% hydroxypropyl-β-cyclodextrin in water; vehicle B=4:1 5% aqueous dextrose:PEG 400). […] Locomotor activity was determined during 20 minute periods using video image analyzers. Images recorded with video cameras were digitalized and displacements of the center of gravity of the digital image spot were tracked and analyzed. When the speed of displacement of the center of gravity of the spot was below 4.26 cm/sec, the movement was considered as inactivity. When this speed was between 4.26 and 6.75 cm/sec, the movement was considered as a small movement. When this speed was above 6.75 cm/sec, the movement was considered as a large movement. The number of occurrences, distance and duration of fast and slow movements, number of occurrences and duration of periods of inactivity and number of rears were measured.

[8] = rodents, ex vivo binding; cited from earlier work
serotonin transporter [9] = target: T2, serotonin transporter (Homo sapiens, UniProt P31645); assay: 5-HT uptake: displacement of serotonin ligands in vitro (methods of Gu et al.); assay type: binding
DAT [10] = target: T1, DAT; assay: cell-based; set-up: expressed in transfected cells; settings: hDAT cell line; read-out: DA Uptake, Functional Assays (antagonism, EC50)
dopamine transporter [11] = target: dopamine transporter (Homo sapiens, UniProt Q01959); assay: DA uptake: displacement of dopamine ligands in vitro (methods of Gu et al.); settings: DA Uptake, Uptake Profile (IC50, nM), displacement of dopamine ligands in vitro
[12] = target: T3, norepinephrine transporter (Homo sapiens, UniProt P23975); assay: NE uptake: displacement of norephinephrine ligands in vitro (methods of Galli et al.); assay type: binding; settings: NE Uptake, Uptake Profile (IC50, nM)
ICR derived mice = assay: In vivo evaluation of 4: acute toxic symptoms, autonomic effects and mortality after i.v. dosing; set-up: species or system mouse; settings: i.v., 5, 10, 20, and 30 mk/kg
Experimental: Compound 4 was administered i.v. to a group of 3 ICR derived male or female mice (˜22 gms) and observed for the presence of acute toxic symptoms (mortality, convulsions, tremors, muscle relaxation, sedation, etc.) and autonomic effects (diarrhea, salvation, lacrimation, vasodilation, piloerection, etc) during first 5 min (i.v).
Compound 4 was administered at doses of 5, 10, 20, and 30 mk/kg. […] After monitoring daily for 3 days, no mortality was observed.

serotonin transporter [13] = target: T2, serotonin transporter; assay: Functional activity, serotonin uptake inhibition in human HEK-293 cell lines; assay type: cell-based; set-up: expressed in transfected cells; host or cells: HEK-293; settings: 5-HT Uptake, Functional Assays (antagonism, EC50, nM)
Sprague-Dawley rats [14] = assay: Spontaneous locomotor activity in rats (Example 123); assay type: in vivo, rat; settings: 20 mg/kg i.p., 60 minutes after administration
Experimental: Male Sprague-Dawley rats, (Iffa Credo, Saint-Germain/L'Arbresle, France), weighing 200-250 g at the beginning of the study, were used.
During acclimatization period, rats were housed, 2 or 3 per cage, in Makrolon type III cages, in the animal room (temperature: 20±2° C., humidity: minimum 45%, air changes:>12 per hour, light/dark cycle of 12 h/12 h [on at 7:00 A.M.]). Animals were allowed a minimum of 5 days period before experiment for acclimatization.
Rats received food (TrouwNutrition, Vigny, France) and water (tap water in water bottle) ad libitum. Rats were placed on a sawdust bedding in their cages (Goldchips, Trouw Nutrition, Vigny, France). On the day before experiments, food was withdrawn to have animals fasted overnight.
On the day of experiment, test item(s) were solubilized in 5% dextrose (w/v)/polyethylene glycol (PEG) 400 (4:1 v/v).
All test compounds were administered at 20 mg/kg as a single i.p. dose.
Twenty, 60 and 120 minutes after administration, rats were placed in a plastic box 30×30 cm in a room with low light intensity (maximum 50 lux). Locomotor activity was determined during 20 min periods using a video image analyzer (Videotrack, View Point, France). Number of occurences, distance and duration of fast and slow movements, number of occurences and duration of periods of inactivity and number of rears were measured.

[15] = target: T3, norepinephrine transporter; assay: Functional activity, norephinephrine uptake inhibition in MDCK cell lines; assay type: cell-based
mouse = assay: Acute toxicity assessment, maximum tolerated dose i.v., mouse; assay type: in vivo; settings: mice, 30 mg/kg i.v.
Experimental: (§1) An in vivo evaluation was carried out to determine the maximum tolerated dose of numerous test compounds in two animal species (mouse and rat). The compounds were administered i.v. and the animals were then observed for 72 h. Compounds 114, 115, 113, 110, 124, 125, 129, and 130 were solubilized in 5% dextrose (w/v)/polyethylene glycol 400 (4:1 v/v). Compounds 126, 127, 131, and 132 were solubilized in 10% hydroxypropyl-β-cyclodextrin (w/v).

rat = assay: Acute toxicity assessment, maximum tolerated dose i.v., rat; assay type: in vivo; settings: rats, 30 mg/kg i.v.
Experimental: as §1

T3 sequence (P23975 whole entry): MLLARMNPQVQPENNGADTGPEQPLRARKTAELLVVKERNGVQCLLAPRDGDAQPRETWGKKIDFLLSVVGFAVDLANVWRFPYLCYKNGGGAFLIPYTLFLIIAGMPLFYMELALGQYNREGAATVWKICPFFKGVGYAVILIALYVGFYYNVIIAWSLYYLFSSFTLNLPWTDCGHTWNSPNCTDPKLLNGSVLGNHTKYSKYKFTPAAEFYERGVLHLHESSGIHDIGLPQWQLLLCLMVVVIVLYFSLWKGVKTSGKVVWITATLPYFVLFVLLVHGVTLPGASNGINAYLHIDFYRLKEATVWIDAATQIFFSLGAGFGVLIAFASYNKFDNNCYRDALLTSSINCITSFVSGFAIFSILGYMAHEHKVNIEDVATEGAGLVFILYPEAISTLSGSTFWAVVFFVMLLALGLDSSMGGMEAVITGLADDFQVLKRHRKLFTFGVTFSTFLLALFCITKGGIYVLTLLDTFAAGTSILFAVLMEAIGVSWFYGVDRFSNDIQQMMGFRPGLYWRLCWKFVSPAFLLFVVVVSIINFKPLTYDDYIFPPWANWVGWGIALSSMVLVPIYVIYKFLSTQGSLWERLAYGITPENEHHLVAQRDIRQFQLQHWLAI
T2 sequence (P31645 whole entry): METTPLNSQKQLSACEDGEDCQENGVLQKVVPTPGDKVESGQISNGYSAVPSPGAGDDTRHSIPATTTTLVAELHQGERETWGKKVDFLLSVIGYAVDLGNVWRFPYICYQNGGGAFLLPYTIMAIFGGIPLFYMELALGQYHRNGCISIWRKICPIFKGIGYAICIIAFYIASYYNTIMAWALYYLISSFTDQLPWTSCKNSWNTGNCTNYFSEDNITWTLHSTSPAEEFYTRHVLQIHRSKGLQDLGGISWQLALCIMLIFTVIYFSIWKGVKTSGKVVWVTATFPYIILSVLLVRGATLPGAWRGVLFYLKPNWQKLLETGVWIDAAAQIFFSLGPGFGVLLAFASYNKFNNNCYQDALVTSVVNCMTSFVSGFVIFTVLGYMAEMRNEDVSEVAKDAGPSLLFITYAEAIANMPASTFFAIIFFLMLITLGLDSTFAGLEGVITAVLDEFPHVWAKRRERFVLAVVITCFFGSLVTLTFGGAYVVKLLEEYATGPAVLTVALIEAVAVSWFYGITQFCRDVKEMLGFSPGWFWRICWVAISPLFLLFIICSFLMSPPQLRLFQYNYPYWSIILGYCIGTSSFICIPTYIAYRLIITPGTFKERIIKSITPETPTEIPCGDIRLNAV
T1 sequence (Q01959 whole entry): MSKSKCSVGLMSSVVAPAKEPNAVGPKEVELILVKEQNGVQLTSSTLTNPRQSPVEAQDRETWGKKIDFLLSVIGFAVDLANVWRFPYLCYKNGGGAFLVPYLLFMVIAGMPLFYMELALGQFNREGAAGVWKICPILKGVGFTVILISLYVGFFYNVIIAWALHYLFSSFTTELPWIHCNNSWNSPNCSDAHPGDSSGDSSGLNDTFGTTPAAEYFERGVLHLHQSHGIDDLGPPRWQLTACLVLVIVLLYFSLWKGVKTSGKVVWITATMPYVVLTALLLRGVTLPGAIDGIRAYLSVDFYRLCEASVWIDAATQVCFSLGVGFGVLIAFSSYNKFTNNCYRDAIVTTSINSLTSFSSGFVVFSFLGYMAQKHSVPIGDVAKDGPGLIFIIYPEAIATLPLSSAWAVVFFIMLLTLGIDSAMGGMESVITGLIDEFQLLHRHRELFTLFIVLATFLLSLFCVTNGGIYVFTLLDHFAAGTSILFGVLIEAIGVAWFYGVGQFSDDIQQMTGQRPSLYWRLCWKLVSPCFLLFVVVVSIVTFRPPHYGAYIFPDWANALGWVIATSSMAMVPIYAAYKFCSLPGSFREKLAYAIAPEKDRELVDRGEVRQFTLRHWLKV
Chain of dopamine transporter (Rattus norvegicus, UniProt P23977) (P23977 whole entry): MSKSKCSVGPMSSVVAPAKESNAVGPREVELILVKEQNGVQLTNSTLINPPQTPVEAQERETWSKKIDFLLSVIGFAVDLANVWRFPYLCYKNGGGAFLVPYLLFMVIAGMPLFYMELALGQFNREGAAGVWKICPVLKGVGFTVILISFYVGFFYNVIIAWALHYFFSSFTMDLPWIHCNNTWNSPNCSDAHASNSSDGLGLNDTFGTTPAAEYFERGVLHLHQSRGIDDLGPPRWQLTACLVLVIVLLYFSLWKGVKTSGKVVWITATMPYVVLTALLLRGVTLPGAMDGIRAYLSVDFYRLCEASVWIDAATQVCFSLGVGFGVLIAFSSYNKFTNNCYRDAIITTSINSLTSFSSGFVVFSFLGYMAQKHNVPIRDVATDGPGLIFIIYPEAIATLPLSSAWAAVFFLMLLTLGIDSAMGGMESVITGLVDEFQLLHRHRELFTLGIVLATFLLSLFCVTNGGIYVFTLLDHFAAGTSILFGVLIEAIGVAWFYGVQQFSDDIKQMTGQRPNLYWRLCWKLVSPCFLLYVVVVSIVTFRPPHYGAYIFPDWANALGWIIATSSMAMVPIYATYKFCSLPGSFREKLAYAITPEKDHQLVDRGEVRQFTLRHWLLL
Chain of dopamine transporter (Homo sapiens, UniProt Q01959) (Q01959 whole entry): as the sequence (Q01959 whole entry) above

COC(=O)[C@H]1[C@@H](OC(=O)c2ccccc2)C[C@@H]2CC[C@H]1N2C [cocaine]
time of peak uptake into the brain [1]: 4 to 6 min
half-life in the brain [1]: 20 min
time to peak concentration in brain ([2]; intravenous): 4 to 6 min

Cc1ccc(-c2cc([C@@H]3C4CCC(C[C@@H]3c3ccc(Cl)cc3)N4C)on2)cc1 (stereo partly drawn) [RTI-336]
pIC50 (dopamine transporter [3]): 8.39
time to peak action after administration [4]: 70 to 100 min
effect on self-administration of cocaine (rats and monkeys): effective blocking of cocaine self-administration

CN1[C@H]2CC[C@@H]1[C@@H](C(=O)Oc1ccccc1)[C@@H](c1ccc(Cl)cc1)C2 [RTI-113]
pIC50 (dopamine transporter [3]): 8.70
duration of action [4]: over 4 hours
time to peak action after administration [4]: 30 to 60 min
effectiveness of elimination of cocaine consumption (rats and monkeys; 60% occupancy of the dopamine transporter): 92%
effect on self-administration of cocaine (rats and monkeys): inhibits self-administration of cocaine

COC(=O)C(c1ccccc1)C1CCCCN1 (stereo not drawn) [methylphenidate, reference compound]
Large Movement Occurrences (Sprague-Dawley rats [5]; 1 hour): 958 ± 118 ^
Small Movement Occurrences (Sprague-Dawley rats [5]; 1 hour): 1595 ± 83 ^
Large Movement Occurrences (Sprague-Dawley rats [5]; 3 hours): 504 ± 114 ^
Small Movement Occurrences (Sprague-Dawley rats [5]; 3 hours): 1072 ± 122^
Large Movement Occurrences (Sprague-Dawley rats [5]; 5 hours): 196 ± 62^
Small Movement Occurrences (Sprague-Dawley rats [5]; 5 hours): 612 ± 108 ^
Large Movement Occurrences (Sprague-Dawley rats [5]; 8 hours): 71 ± 20 ^
Small Movement Occurrences (Sprague-Dawley rats [5]; 8 hours): 358 ± 65^
Large Movement Occurrences (Sprague-Dawley rats [5]; 24 hours): 335 ± 68^
Small Movement Occurrences (Sprague-Dawley rats [5]; 24 hours): 790 ± 81^
time of peak uptake into the brain [1]: 8 to 10 min
half-life in the brain [1]: 90 min
DAT occupancy (DAT [6]): 70-72%
“high” in subjects (DAT [6]): no “high” was observed
Large Movement Occurrences (Sprague-Dawley rats [7]; 20 min): 974.3 ± 125.5 ^
Small Movement Occurrences (Sprague-Dawley rats [7]; 20 min): 1537.0 ± 97.3 ^
Large Movement Occurrences (Sprague-Dawley rats [7]; 60 min): 423.9 ± 75.9
Small Movement Occurrences (Sprague-Dawley rats [7]; 60 min): 992.0 ± 126.7 ^
Large Movement Occurrences (Sprague-Dawley rats [7]; 120 min): 191.8 ± 37.1 ^
Small Movement Occurrences (Sprague-Dawley rats [7]; 120 min): 555.0 ± 87.0
time to peak concentration in brain ([2]; intravenous): 8 to 10 min
time to peak concentration in brain ([2]; orally dosed): 60 min

CCC(=O)[C@H]1[C@@H](c2ccc(C)cc2)C[C@@H]2CC[C@H]1N2C [PPT, 2β-propanoyl-3β-(4-tolyl)-tropane]
time of onset after administration [8]: ca. 30 minutes
addictiveness (rats and monkeys; monkeys): not addictive
decrease of self-administered cocaine intake (rats and monkeys; monkeys): 70%

Clc1ccc(C2(CN3CCCC(COc4ccccc4)C3)CCC2)cc1 (stereo not drawn) [compound 4]
IC50 (serotonin transporter [9]; 5-HT Uptake, Uptake Profile (IC50, nM)): > 1000 nM
pEC50 (DAT [10]): > 6.00
IC50 (dopamine transporter [11]): < 1000 nM
IC50 [12]: > 1000 nM
change in autonomic signs of behavior (ICR derived mice): No obvious change
mortality (ICR derived mice; monitored daily for 3 days): no mortality

Clc1ccc(C2(CN3CCC[C@H](COc4ccc5c(c4)OCO5)C3)CCC2)cc1 [compound 113, (S)-3-(Benzo[1,3]dioxol-5-yloxymethyl)-1-[1-(4-chloro-phenyl)-cyclobutylmethyl]-piperidine]
pIC50 (serotonin transporter [9]; displacement of serotonin ligands in vitro, read-out: 5-HT Uptake, Uptake Profile (IC50)): > 6.00
pEC50 (DAT [10]): > 8.00
EC50 (serotonin transporter [13]): > 1000 nM
locomotor activity compared to control animals (Sprague-Dawley rats [14]): significant increase
IC50 (dopamine transporter [11]): < 100 nM
pEC50 [15]: > 6.00
tolerability and mortality after 72 h (mouse): well tolerated
IC50 [12]: < 1000 nM
tolerability and mortality after 72 h (rat): well tolerated
